Results as given in PMC12390126, “Human Skin Permeation of Ethoxy- and Propoxypropanol Commonly Found in Water-Based Products” (Toxics, 2025).
Entries after “also recorded” stand apart in the source; their conditions may differ.

Experiments:
[1] = In vitro static diffusion cell skin permeation (influence of water); assay type: in vitro ADME, human; details: static cells; 0, 25, 50 or 75% of water
Description: Human abdominal full thickness skin was obtained as surgical waste from the Lausanne University Hospital (CHUV) and the Department of Musculoskeletal Medicine (DAL) Biobank, Switzerland, according to the Swiss ethics in the canton Vaud (CER-VD: Commission cantonal d’éthique de la recherche sur l’être humain, ethical protocol 264/12). The surgeon obtained written consent from the patients before the start of the operation. The collected skin was anonymized, and only sex and age were provided for this study. Human skin was obtained directly after the surgery and immediately dermatomed to a thickness of 800 µm (Acculan®II, B. Braun/Aesculap, Sempach, Switzerland) to account for any potential storage effects on its in vitro mass balance. The experiments were run with triplicate skin samples (n = 3) from three different donors giving a total of nine samples for each experiment. The skin samples used for this study were stored at −20 °C for up to four years. […]
The concentrations of parent compounds were quantified by gas-chromatography tandem mass spectrometry (GC-MS/MS). […] The limits of detections (LODs) for PGEE and PGPE were 0.045 µg/mL and 0.035 µg/mL, respectively, and the limits of quantifications (LOQs) for PGEE and for PGPE were 0.135 µg/mL and 0.105 µg/mL, respectively. […]

[2] = In vitro flow-through diffusion cell skin permeation; assay type: in vitro ADME, human; details: for first quantified in the receptor fluid after application: Figure 1A, first 3 h of exposure; for permeability rate J diluted in water compared to neat: aqueous 50:50 versus neat; for time to permeate previously frozen human skin: aqueous PGEs applied
Description: Human abdominal full thickness skin was obtained as surgical waste from the Lausanne University Hospital (CHUV) and the Department of Musculoskeletal Medicine (DAL) Biobank, Switzerland, according to the Swiss ethics in the canton Vaud (CER-VD: Commission cantonal d’éthique de la recherche sur l’être humain, ethical protocol 264/12). The surgeon obtained written consent from the patients before the start of the operation. The collected skin was anonymized, and only sex and age were provided for this study. Human skin was obtained directly after the surgery and immediately dermatomed to a thickness of 800 µm (Acculan®II, B. Braun/Aesculap, Sempach, Switzerland) to account for any potential storage effects on its in vitro mass balance. The experiments were run with triplicate skin samples (n = 3) from three different donors giving a total of nine samples for each experiment. The skin samples used for this study were stored at −20 °C for up to four years. The experiments were performed only when a sufficient number of skin samples was available from three different donors.
The in vitro flow-through diffusion cell experiments were used to assess skin permeation kinetics after neat and aqueous application, separately. The abdominal human frozen skin was thawed for one hour at room temperature and cut into disks (exposed area of 1 cm^2). These were mounted onto the diffusion cells between the donor and the receptor chamber filled with saline water (0.9% NaCl (aq), 8 mL). Four different experimental conditions were used: application of solutions containing either PGEE or PGPE (neat) and application of aqueous solutions of PGEE or PGPE (50:50 v/v mixture). Each experiment was performed with triplicate cells from three different donors ([…] diffusion cells exposed to PGE per experimental condition) and one control cell per skin donor (n = 3 diffusion cells not exposed to PGE). The trans epidermal water loss (TEWL; VapoMeter wireless, Delfin Technologies Ltd., Kuopio, Finland) was measured for each skin disk to assess skin sample integrity. Skin samples with a TEWL greater than 11 g/m^2/h were excluded. TEWL was measured again at the end of each experiment to confirm skin integrity throughout the experiment.
The in vitro flow-through diffusion cell experiments were carried out using a rack-mounted system consisting of nine in-line jacketed flow-through diffusion cells (PermeGear® from SES Analytical System, Bechenheim, Germany). A peristaltic pump (Ismatec IPC-N, IDEX Health and Science GmbH, Wertheim-Mondfeld, Germany) operated at a flow rate of 200 µL/min for the first 180 min to ensure that the transition point—when the glycol ethers reached the receptor fluid—was accurately captured for these rapidly diffusing substances. The pump rate was then adjusted to 40 µL/min for the remaining time until 24 h. These collection times and flow rates were set to achieve steady state. The diffusion cell system was equipped with a magnetic stirrer in each cell to ensure a constant and uniform mixing of the substances in the reservoir fluid. The diffusion cells were kept at 32 °C with a heated water bath (Haake SC 100 Digital Immersion Circulator, Thermo Scientific, Newington, NH, USA). A fraction collector (FC 204, Gilson Inc., Middleton, WI, USA) automatically sampled the reservoir fluid at different time points for 24 h, i.e., at 0.5, 1, 1.5, 2, 2.5, 3, 6, 9, 12, 15, 18, 21, and 24 h. PGPE (>95%) and PGEE (>99%) (Chemic Brunschwig AG, Basel, Switzerland) were applied separately onto the skin samples either neat substances or aqueous solutions (Milli-Q Advantage A10 System, Millipore AG, MerckMillipore, Schaffhouse, Switzerland). We applied 500 µL (aqueous application) and 200 µL (neat application) of them to increase the likelihood of reaching steady state permeation conditions. All collected samples were stored at 4 °C after the experiment. […]

| Compound | mean cumulative amount in receptor fluid after 24 h: trend with percentage of water [1] | first quantified in the receptor fluid after application [2] [min] | permeability rate J diluted in water compared to neat [2] | time to permeate previously frozen human skin [2] [min] |
| --- | --- | --- | --- | --- |
| CCCOCC(C)O (centres unmarked) [PGPE, propoxypropanol] | reached a maximum when diluted with 25 % water (75:25), followed by a decrease at higher water concentrations | 30 | four times greater; also recorded: more than four times quicker | ≤ 30 |
| CCOCC(C)O (centres unmarked) [PGEE] | increased with the percentage of water in the applied mixture | 30 | double | ≤ 30 |
